# From patent publication US20220220100A1 (SOLUTIA CANADA INC., priority 2019, published 2022)
# Legend:
# [1] = UV/Vis absorbance at 400 nm and Yellowness Index of the ring-open isomer; assay type: physicochemical; details: for Abs @ 400 nm, RO (Absorption of ring-open isomer at 400 nm): 2×10^−5 M solution, 1 cm pathlength cuvette
# Source text: In addition to the above, chromophores should have acceptable colour for both the ring-opened and ring-closed isomers. For example, the ring-open isomer of the chromophore should have a Yellowness Index (YI) of less than about 10 and an absorbance at 400 nm, as measured for a 2×10^−5 M solution in a 1 cm pathlength cuvette. For the ring-closed isomer of the chromophore, the lambda max should be between about 475 nm and 700 nm, tunable according to desired colour and number of chromophores in the composition.
# UV/Vis spectra were obtained using an OceanOptics™ Spectrophotometer. A 2×10^−5 M solution of compound in solvent was prepared, and photofaded using visible light until absorption in the visible region of the spectrum stabilized. The sample was then irradiated with simulated sunlight (QSUN SS-150 Solar Simulator with xenon arc lamp) until the absorption spectrum stabilized. To obtain PSS in the presence of a UV blocking film, a second sample was prepared and irradiated as described, with a UV blocking film inserted in the light path when irradiating.
# [2] = Photostability: xenon arc weathering of chromophore solutions, LCMS analysis; assay type: physicochemical; details: for Ketone (%) / Minus-2HF (%) / Minus-HF (%) / Sulfone (%) / Chromophore Remaining (%): xenon arc, 82° C. bp; for Ketone (%) / Minus-2HF (%) / Minus-HF (%) / Sulfone (%): linearly interpolated to 0.5 MJ/m2 @ 340 nm; for Chromophore Remaining (%): linearly interpolated to 0.5 MJ/m2 @ 340 nm of exposure energy; for Ratio of chromophore remaining relative to S340: interpolated to 0.5 MJ/m^2 of energy exposure at 340 nm; for Photostability (in words): weathering experiments
# Source text: Photostability (resistance to light-induced degradation) may be measured by the amount of time required for the compound, or a material comprising the compound, to degrade to a certain point under light exposure. The light exposure may be constant, or cyclic. The light transmittance or absorbance of the compound, or material comprising the compound, may be determined at both a light state and dark state prior to testing, to determine a contrast ratio. During testing, the contrast ratio may be monitored (periodically or continually), the compound or material may be determined to have failed when the contrast ratio falls outside, or below, a selected range, or when the contrast ratio decreases to a percentage of the original contrast ratio. Photostability may also be expressed with reference to a light source or with reference to a type of light.
# Chromophore solutions in Rhodiasolv IRIS were prepared at 1 to 10 wt % loading. Solutions were prepared in a glovebox by charging the chromophore and Rhodiasolv IRIS to a trace-clean vial, and the solution was stirred on a hotplate at 90° C. for 2-24 hours. After cooling, the chromophore solution was injected into glass weathering cells and the fill and vent ports were sealed with a thin disc of Kalrez (FFKM Perfluorinated Elastomer) and secured with a clamp and set-screw. The weathering cells were filled and sealed inside the glove box.
# Measurement of Photostability
# A. Fabrication of cuvettes. Two holes of 0.8 mm diameter were drilled at opposite ends in a 75×50 mm piece of float glass using a diamond drill bit in a rotary tool. The drilled glass and a matching piece of undrilled glass were then cleaned using hot soapy water, rinsed with deionized water and acetone and then dried with compressed air. A 5 mm wide frame was cut from a sheet of 50 μm thickness EVAL EF-F using a laser engraver. The EVAL frame was placed around the perimeter of one sheet of glass and sandwiched by the second sheet of glass. The glass-EVAL-glass sandwich was secured with tape and heated under vacuum (10 mmHg) for 30 minutes at 170° C. in a vacuum bag. After cooling, a third piece of float glass was PVB laminated to the non-drilled side of the sealed glass cells using Trosifol UV Extra Protect B150 PVB (400 nm UV cut-off).
# B. Xenon arc weathering protocol. Devices were exposed to simulated weathering conditions inside a Xe-3-HS xenon arc chamber, manufactured by Q-labs Inc. The samples were weathered according to the following table. The devices were exposed to these conditions continuously, with no dark or spray cycles included.
# C. Analysis of weathered chromophore solutions by LCMS. The set-screws, metal clamps and Kalrez plugs were removed from the cuvette to expose the fill port. A 5 mL plastic syringe (NORM-JECT®) equipped with a tip (Precision Tips, 0.010″ RED) was inserted into one fill port and the chromophore solution was withdrawn from the cuvette. The chromophore solution was then injected into a 2 mL amber vial (part number 5182-0716, Agilent Technology) prefilled with 1.5 mL LC-MS grade acetonitrile (HiPerSolbe CHROMANORM Acetonitrile, VWR BDH Chemicals). An aliquot of the acetonitrile solution (2 μL) was injected into the LC-MS system (Agilent Infinity 1290 LC-MS system with diode array detector) through an autosampler mechanism. Species in the injected sample were separated through a reverse phase column (Zorbax SB-C18, 2.1×50 mm, 1.8 μm, operated at 40° C.), using a mixture of acetonitrile (mixed with 1% formic acid v/v ratio), methanol (HiPerSolbe CHROMANORM Methanol, VWR BDH Chemicals) and water (HiPerSolbe CHROMANORM Water, VWR BDH Chemicals) as mobile phase.
smiles,measurement,setting,value
"CCOC(=O)CCCOc1cc2oc(-c3ccc(C(C)(C)C)cc3)c(C3=C(c4cc(-c5ccc(C(C)(C)C)s5)sc4-c4ccc(C(C)(C)C)s4)C(F)(F)C(F)(F)C3(F)F)c2cc1OCCCC(=O)OCC [Chromophore S374, diethyl 4,4′-((2-(4-(tert-butyl)phenyl)-3-(2-(5,5″-di-tert-butyl-[2,2′:5′,2″-terthiophen]-3′-yl)-3,3,4,4,5,5-hexafluorocyclopent-1-en-1-yl)benzofuran-5,6-diyl)bis(oxy))dibutanoate]",YI (Yellowness Index),[1],6.76
same,"Abs @ 400 nm, RO (Absorption of ring-open isomer at 400 nm)",[1],0.144
same,Ketone (%),[2]; 10 wt % in Rhodiasolv IRIS,0.0%
same,Minus-2HF (%),[2]; 10 wt % in Rhodiasolv IRIS,0.0%
same,Minus-HF (%),[2]; 10 wt % in Rhodiasolv IRIS,26.5%
same,Sulfone (%),[2]; 10 wt % in Rhodiasolv IRIS,0.0%
same,Chromophore Remaining (%),[2]; 10 wt % in Rhodiasolv IRIS,72.4%
same,Ratio of chromophore remaining relative to S340,[2]; 10 wt %,0.79
same,Photostability (in words),[2],decreased stability
"COc1cc2oc(-c3ccc(C(C)(C)C)cc3)c(C3=C(c4cc(-c5cc(C(C)(C)C)cs5)sc4-c4cc(C(C)(C)C)cs4)C(F)(F)C(F)(F)C3(F)F)c2cc1OC [Chromophore S377, 2-(4-(tert-butyl)phenyl)-3-(2-(4,4″-di-tert-butyl-[2,2′:5′,2″-terthiophen]-3′-yl)-3,3,4,4,5,5-hexafluorocyclopent-1-en-1-yl)-5,6-dimethoxybenzofuran]",YI (Yellowness Index),[1],4.89
same,"Abs @ 400 nm, RO (Absorption of ring-open isomer at 400 nm)",[1],0.101
same,Ketone (%),[2]; 5 wt % in Rhodiasolv IRIS,0.0%
same,Minus-2HF (%),[2]; 5 wt % in Rhodiasolv IRIS,0.0%
same,Minus-HF (%),[2]; 5 wt % in Rhodiasolv IRIS,0.0%
same,Sulfone (%),[2]; 5 wt % in Rhodiasolv IRIS,0.0%
same,Chromophore Remaining (%),[2]; 5 wt % in Rhodiasolv IRIS,100.0%
same,Ratio of chromophore remaining relative to S340,[2]; 5 wt %,1.10
same,Photostability (in words),[2],high photostability
"COc1cc2oc(-c3ccc(C(C)(C)C)cc3)c(C3=C(c4cc(-c5ccc(C(C)(C)C)s5)sc4-c4sc(C(C)(C)C)cc4C)C(F)(F)C(F)(F)C3(F)F)c2cc1OC [Chromophore S378, 2-(4-(tert-butyl)phenyl)-3-(2-(5,5″-di-tert-butyl-3-methyl-[2,2′:5′,2″-terthiophen]-3′-yl)-3,3,4,4,5,5-hexafluorocyclopent-1-en-1-yl)-5,6-dimethoxybenzofuran]",YI (Yellowness Index),[1],4.94
same,"Abs @ 400 nm, RO (Absorption of ring-open isomer at 400 nm)",[1],0.127
same,Formation of the Minus-HF degradation product (in words),[2],does not occur
same,Ketone (%),[2]; 3 wt % in Rhodiasolv IRIS,0.0%
same,Minus-2HF (%),[2]; 3 wt % in Rhodiasolv IRIS,0.0%
same,Minus-HF (%),[2]; 3 wt % in Rhodiasolv IRIS,0.0%
same,Sulfone (%),[2]; 3 wt % in Rhodiasolv IRIS,7.5%
same,Chromophore Remaining (%),[2]; 3 wt % in Rhodiasolv IRIS,92.5%
same,Ratio of chromophore remaining relative to S340,[2]; 3 wt %,1.02
"CCOC(=O)CCCOc1cc2oc(-c3ccc(C(C)(C)C)cc3)c(C3=C(c4cc(-c5ccc(C(C)(C)C)s5)sc4-c4sc(C(C)(C)C)cc4C)C(F)(F)C(F)(F)C3(F)F)c2cc1OCCCC(=O)OCC [Chromophore S383, diethyl 4,4′-((2-(4-(tert-butyl)phenyl)-3-(2-(5,5″-di-tert-butyl-3-methyl-[2,2′:5′,2″-terthiophen]-3′-yl)-3,3,4,4,5,5-hexafluorocyclopent-1-en-1-yl)benzofuran-5,6-diyl)bis(oxy))dibutanoate]",YI (Yellowness Index),[1],4.52
same,"Abs @ 400 nm, RO (Absorption of ring-open isomer at 400 nm)",[1],0.144
same,Formation of the Minus-HF degradation product (in words),[2],does not occur
same,Ketone (%),[2]; 10 wt % in Rhodiasolv IRIS,0.0%
same,Minus-2HF (%),[2]; 10 wt % in Rhodiasolv IRIS,0.0%
same,Minus-HF (%),[2]; 10 wt % in Rhodiasolv IRIS,0.0%
same,Sulfone (%),[2]; 10 wt % in Rhodiasolv IRIS,0.0%
same,Chromophore Remaining (%),[2]; 10 wt % in Rhodiasolv IRIS,100.0%
same,Ratio of chromophore remaining relative to S340,[2]; 10 wt %,1.10
"CCOC(=O)CCCOc1cc2oc(-c3ccc(C(C)(C)C)cc3)c(C3=C(c4cc(-c5sc(C(C)(C)C)cc5C)sc4-c4sc(C(C)(C)C)cc4C)C(F)(F)C(F)(F)C3(F)F)c2cc1OCCCC(=O)OCC [Chromophore S384, diethyl 4,4′-((2-(4-(tert-butyl)phenyl)-3-(2-(5,5″-di-tert-butyl-3,3″-dimethyl-[2,2′:5′,2″-terthiophen]-3′-yl)-3,3,4,4,5,5-hexafluorocyclopent-1-en-1-yl)benzofuran-5,6-diyl)bis(oxy))dibutanoate]",YI (Yellowness Index),[1],4.13
same,"Abs @ 400 nm, RO (Absorption of ring-open isomer at 400 nm)",[1],0.107
same,Formation of the Minus-HF degradation product (in words),[2],does not occur
same,Ketone (%),[2]; 10 wt % in Rhodiasolv IRIS,0.0%
same,Minus-2HF (%),[2]; 10 wt % in Rhodiasolv IRIS,0.0%
same,Minus-HF (%),[2]; 10 wt % in Rhodiasolv IRIS,0.0%
same,Sulfone (%),[2]; 10 wt % in Rhodiasolv IRIS,1.3%
same,Chromophore Remaining (%),[2]; 10 wt % in Rhodiasolv IRIS,97.2%
same,Ratio of chromophore remaining relative to S340,[2]; 10 wt %,1.07
"CCOC(=O)CCCOc1cc2oc(-c3ccc(C(C)(C)C)cc3)c(C3=C(c4cc(-c5cc(C(C)(C)C)cs5)sc4-c4cc(C(C)(C)C)cs4)C(F)(F)C(F)(F)C3(F)F)c2cc1OCCCC(=O)OCC [Chromophore S386, diethyl 4,4′-((2-(4-(tert-butyl)phenyl)-3-(2-(4,4″-di-tert-butyl-[2,2′:5′,2″-terthiophen]-3′-yl)-3,3,4,4,5,5-hexafluorocyclopent-1-en-1-yl)benzofuran-5,6-diyl)bis(oxy))dibutanoate]",YI (Yellowness Index),[1],4.05
same,"Abs @ 400 nm, RO (Absorption of ring-open isomer at 400 nm)",[1],0.113
same,Formation of the Minus-HF degradation product (in words),[2],prevents the Minus-HF product
same,Ketone (%),[2]; 10 wt % in Rhodiasolv IRIS,0.0%
same,Minus-2HF (%),[2]; 10 wt % in Rhodiasolv IRIS,0.0%
same,Minus-HF (%),[2]; 10 wt % in Rhodiasolv IRIS,0.0%
same,Sulfone (%),[2]; 10 wt % in Rhodiasolv IRIS,0.0%
same,Chromophore Remaining (%),[2]; 10 wt % in Rhodiasolv IRIS,98.6%
same,Ratio of chromophore remaining relative to S340,[2]; 10 wt %,1.08
same,Photostability (in words),[2],high photostability
"CCOC(=O)CCCOc1cc2oc(-c3ccc(C(C)(C)C)cc3)c(C3=C(c4cc(-c5cc6c(s5)C(C)(C)CCC6(C)C)sc4-c4cc5c(s4)C(C)(C)CCC5(C)C)C(F)(F)C(F)(F)C3(F)F)c2cc1OCCCC(=O)OCC [Chromophore S387, ethyl 4-[(3-{2-[2,5-bis(4,4,7,7-tetramethyl-4,5,6,7-tetrahydro-1-benzothiophen-2-yl)thiophen-3-yl]-3,3,4,4,5,5-hexafluorocyclopent-1-en-1-yl}-2-(4-tert-butylphenyl)-6-(4-ethoxy-4-oxobutoxy)-1-benzofuran-5-yl)oxy]butanoate]",YI (Yellowness Index),[1],8.15
same,"Abs @ 400 nm, RO (Absorption of ring-open isomer at 400 nm)",[1],0.146
same,Formation of the Minus-HF degradation product (in words),[2],prevents the Minus-HF product
same,Ketone (%),[2]; 10 wt % in Rhodiasolv IRIS,0.0%
same,Minus-2HF (%),[2]; 10 wt % in Rhodiasolv IRIS,0.0%
same,Minus-HF (%),[2]; 10 wt % in Rhodiasolv IRIS,0.0%
same,Sulfone (%),[2]; 10 wt % in Rhodiasolv IRIS,0.0%
same,Chromophore Remaining (%),[2]; 10 wt % in Rhodiasolv IRIS,100.0%
same,Ratio of chromophore remaining relative to S340,[2]; 10 wt %,1.10
same,Photostability (in words),[2],high photostability
